A short description of data set [1]: Human Hepatocyte Stability. It is filed as in vitro ADME. The conditions noted are these: human hepatocytes 0.5×10^6 cells/mL, 120 min; for half-life at 1 μM: read-out: T1/2 (hepatic); for microsomal CLint at 1 μM: read-out: in vitro CLint (hepatic). As for the experimental part:
The tested compound was incubated in duplicate with incubation media (Williams' Medium E with 1× GlutaMAX) containing human hepatocytes (0.5×10^6 cells/mL). These incubations were carried out at a final test concentration of 1 μM over a total incubation period of 120 minutes. Samples were taken at 0, 15, 30, 60, 90 and 120 min and the reaction was terminated by addition of acetonitrile containing internal standard (100 nM alprazolam, 200 nM labetalol, 200 nM caffeine and 200 nM diclofenac). Verapamil was used as the positive control in this study. The samples were analyzed by UPLC-MS/MS to determine the concentration of the tested compound and the percentage remaining, intrinsic clearance (in vitro CLint) and half-life (t½) values were calculated.
(§1) Chromatographic analyses were performed on a Shimadzu UPLC apparatus (Kyoto, Japan) consisting of a gradient pump (model LC-30AD), an automatic injector (model HTC PAL System) and an on-line degasser (model DGU-20A5R). Detection was a triple quadrupole tandem mass spectrometer equipped with a turbo ion spray interface (API 4000/Triple Quad 4500/Triple Quad 5500/Triple Quad 6500). Data acquisition and integration were carried out with LC-MS software (Analyst 1.6) linked directly to the LC-MS/MS system. Chromatographic separations were achieved on a XSelect Hss T3 2.5μ (2.1×30 mm) Column. The mobile phase was 0.1% formic acid in water (A) and 0.1% formic acid in acetonitrile (B). The flow rate was 1.0 mL/min and column was maintained at 40° C.
Half-life (T1/2) data is measured in minutes, and in Table B2, the data is grouped into categories of by the following rules: • T1/2 (hepatic): A=200+; B=100 to 200; C=50 to 100; and D<50.
In vitro clearance (CLint) data is measured in μL/min/mg prot, and in Table B3, the data is grouped into categories of by the following rules: • CLint (microsomal): A<5; B=5 to 10; C=10 to 20; and D=20+.

The target of a further data set is T1, EP2 receptor (Homo sapiens, UniProt P43116).
T1 construct: expressed in transfected cells; host or cells: CHO-K1 cells (ATCC), transient transfection with FuGENE 6
T1 sequence (P43116 whole entry): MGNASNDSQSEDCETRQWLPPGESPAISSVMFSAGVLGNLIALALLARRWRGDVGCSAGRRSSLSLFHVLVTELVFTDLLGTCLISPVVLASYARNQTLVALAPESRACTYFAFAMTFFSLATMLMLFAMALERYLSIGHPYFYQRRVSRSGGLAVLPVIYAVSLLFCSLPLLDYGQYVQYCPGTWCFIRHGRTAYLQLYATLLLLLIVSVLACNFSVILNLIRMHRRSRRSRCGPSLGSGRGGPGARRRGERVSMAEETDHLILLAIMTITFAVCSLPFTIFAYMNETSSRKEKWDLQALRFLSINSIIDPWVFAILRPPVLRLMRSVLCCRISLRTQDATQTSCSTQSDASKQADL
Put plainly: EP2 Potency Assay (cAMP TR-FRET, CHO-K1 cells transfected with EP2 receptor, PGE2 at EC80). The conditions noted are these: CHO-K1 cells expressing EP2, prostaglandin E2 at EC80, read-out: EP2 Potency (IC50 category). In kind it is cell-based. In short, it runs like this:
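CHO-K1 cells transiently transfected with EP2 and seeded 24 h after transfection. IC50 from curve fit of percent inhibition versus concentration.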

Data set [2] in a line: Human Liver Microsome Stability. In kind it is in vitro ADME. The following applies: human liver microsomes 0.5 mg/mL, 37° C., 60 min; for half-life at 2 μM: read-out: T1/2 (microsomal); for microsomal CLint at 2 μM: read-out: in vitro CLint (microsomal). As for the experimental part: The tested compound was incubated in duplicate with human liver microsomes (0.5 mg/mL) at 37° C. These incubations were carried out at a final test article concentration of 2 μM over a total incubation period of 60 minutes. Samples were taken at 0, 15, 30, 45 and 60 min and the reaction terminated by addition of 4 volumes of acetonitrile containing internal standard (100 nM alprazolam, 200 nM imipramine, 200 nM labetalol and 2 μM ketoprofen). Diclofenac was used as a positive control in this study. The samples were analyzed by UPLC-MS/MS to determine the concentration of the test compound and the percent remaining, intrinsic clearance (in vitro CLint) and half-life (T1/2) values were calculated.
as §1
Half-life (T1/2) data is measured in minutes, and in Table B2, the data is grouped into categories of by the following rules: • T1/2 (microsomal): A=100+; B=50 to 100; C=20 to 50; D<20.
In vitro clearance (CLint) data is measured in μL/min/mg prot, and in Table B2, the data is grouped into categories of by the following rules: • CLint (microsomal): A<20; B=20 to 50; C=50 to 100; and D=100+.

Take `O=c1ncc(CN2CCOc3c(Cl)cc(-n4ccc5cc(F)ccc54)cc3C2)c[nH]1` [Compound 58]: in data set [1], the half-life at 1 μM was more than 200 min and the microsomal CLint at 1 μM was 5 to 10 µL/min/mg. Further, the IC50 at EP2 receptor was less than 0.1 µM. Moreover, in data set [2], the half-life at 2 μM was more than 100 min and the microsomal CLint at 2 μM is less than 20 µL/min/mg.

In the case of `Cc1c(CN2CCOc3c(Cl)cc(-n4ccc5cc(F)ccc54)cc3C2)cnn1C` [Compound 106, 9-chloro-4-((1,5-dimethyl-1H-pyrazol-4-yl)methyl)-7-(5-fluoro-1H-indol-1-yl)-2,3,4,5-tetrahydrobenzo[f][1,4]oxazepane], the IC50 on EP2 receptor fell in the range of 0.5 to 1 µM. Besides, in data set [2], the half-life at 2 μM was less than 20 min and the microsomal CLint at 2 μM is more than 100 µL/min/mg.

Take `C[C@@H]1COc2c(Cl)cc(-n3ccc4cc(F)ccc43)cc2CN1Cc1cnc(N)nc1` [Compound 11, 5-{[9-chloro-7-(5-fluoroindol-1-yl)-3-methyl-3,5-dihydro-2H-1,4-benzoxazepin-4-yl]methyl}pyrimidin-2-amine]: in data set [1], the half-life at 1 μM fell in the range of 50 to 100 min and the microsomal CLint at 1 μM is more than 20 µL/min/mg. Further, the IC50 at EP2 receptor is less than 0.1 µM. For the same compound, in data set [2], the half-life at 2 μM is less than 20 min and the microsomal CLint at 2 μM was more than 100 µL/min/mg.

For the compound `Nc1ncc(CN2CCOc3c(Cl)cc(-n4ccc5cc(F)ccc54)cc3C2)cn1` [Compound 146], in data set [1], the half-life at 1 μM fell in the range of 100 to 200 min and the microsomal CLint at 1 μM was in the range of 10 to 20 µL/min/mg. In addition, the IC50 at EP2 receptor was less than 0.1 µM. In data set [2], the half-life at 2 μM was less than 20 min and the microsomal CLint at 2 μM is 50 to 100 µL/min/mg.

Regarding `Nc1cnc(CN2CCOc3c(Cl)cc(-n4ccc5cc(F)ccc54)cc3C2)cn1` [Compound 170], the IC50 on EP2 receptor is 0.5 to 1 µM. In data set [2], the half-life at 2 μM was 20 to 50 min and the microsomal CLint at 2 μM lay in the range of 20 to 50 µL/min/mg.

As to `O=c1cc(CN2CCOc3c(Cl)cc(-n4ccc5cc(F)ccc54)cc3C2)cco1` [Compound 203, 4-{[9-chloro-7-(5-fluoroindol-1-yl)-3,5-dihydro-2H-1,4-benzoxazepin-4-yl]methyl}pyran-2-one], the IC50 at EP2 receptor lay in the range of 0.1 to 0.5 µM. In data set [2], the half-life at 2 μM is less than 20 min and the microsomal CLint at 2 μM was 50 to 100 µL/min/mg.

As for `C[C@@H]1COc2c(Cl)cc(-n3ccc4cc(F)ccc43)cc2CN1Cc1cnc(=O)[nH]c1` [Compound 9], in data set [1], the half-life at 1 μM was less than 50 min and the microsomal CLint at 1 μM is more than 20 µL/min/mg. The IC50 at EP2 receptor fell in the range of 0.1 to 0.5 µM. Moreover, in data set [2], the half-life at 2 μM lay in the range of 50 to 100 min and the microsomal CLint at 2 μM was 20 to 50 µL/min/mg.

`O=C1CC(CN2CCOc3c(Cl)cc(-n4ccc5cc(F)ccc54)cc3C2)=NN1` [Compound 198, 5-{[9-chloro-7-(5-fluoroindol-1-yl)-3,5-dihydro-2H-1,4-benzoxazepin-4-yl]methyl}-2,4-dihydropyrazol-3-one]: the IC50 at EP2 receptor fell in the range of 1 to 5 µM. Moreover, in data set [2], the half-life at 2 μM was in the range of 20 to 50 min and the microsomal CLint at 2 μM lay in the range of 50 to 100 µL/min/mg.

In the case of `Fc1ccc2c(ccn2-c2cc(Cl)c3c(c2)CN(Cc2ccnc(C4COC4)c2)CCO3)c1` [Compound 187, 9-chloro-7-(5-fluoroindol-1-yl)-4-{[2-(oxetan-3-yl)pyridin-4-yl]methyl}-3,5-dihydro-2H-1,4-benzoxazepine], in data set [1], the half-life at 1 μM is less than 50 min and the microsomal CLint at 1 μM was more than 20 µL/min/mg. Also, on EP2 receptor, the IC50 fell in the range of 0.1 to 0.5 µM. Moreover, in data set [2], the half-life at 2 μM was less than 20 min and the microsomal CLint at 2 μM is more than 100 µL/min/mg.

On to `O=c1cc(CN2CCOc3c(Cl)cc(-n4ccc5cc(F)ccc54)cc3C2)cc[nH]1` [Ref, 4-((9-chloro-7-(5-fluoro-1H-indol-1-yl)-2,3-dihydrobenzo[f][1,4]oxazepin-4(5H)-yl)methyl)pyridin-2(1H)-one, reference compound], for which, in data set [1], the half-life at 1 μM was in the range of 100 to 200 min and the microsomal CLint at 1 μM was in the range of 5 to 10 µL/min/mg. For the same compound, in data set [2], the half-life at 2 μM was in the range of 20 to 50 min and the microsomal CLint at 2 μM fell in the range of 20 to 50 µL/min/mg.

As for `O=C1NC=C(CN2CCOc3c(Cl)cc(-n4ccc5cc(F)ccc54)cc3C2)CN1` [Compound 202], the IC50 at EP2 receptor was 0.5 to 1 µM. Also, in data set [2], the half-life at 2 μM was in the range of 50 to 100 min and the microsomal CLint at 2 μM fell in the range of 20 to 50 µL/min/mg.

For `O=C1CC(CN2CCOc3c(Cl)cc(-n4ccc5cc(F)ccc54)cc3C2)CCN1` (centres unmarked) [Compound 200, 4-{[9-chloro-7-(5-fluoroindol-1-yl)-3,5-dihydro-2H-1,4-benzoxazepin-4-yl]methyl}piperidin-2-one], on EP2 receptor, the IC50 fell in the range of 1 to 5 µM. For the same compound, in data set [2], the half-life at 2 μM lay within 20 to 50 min and the microsomal CLint at 2 μM lay in the range of 20 to 50 µL/min/mg.

As to `COc1ncc(CN2CCOc3c(Cl)cc(-n4ccc5cc(F)ccc54)cc3C2)cn1` [Compound 13], the IC50 on EP2 receptor was in the range of 0.1 to 0.5 µM. In data set [2], the half-life at 2 μM was less than 20 min and the microsomal CLint at 2 μM was in the range of 50 to 100 µL/min/mg.

These data come from patent US12624024B2, “EP2 antagonist compounds” (Reservoir Neuroscience, Inc., priority 2021, dated 2026).
